# Data as given in EPA's ToxValDB 9.5 (doi:10.2903/j.efsa.2006.78r).
# Experiments:
# [1] = test system: Apis mellifera; conditions: acute; duration: 48 hours; oral; unspecified; mortality
# [2] = test system: Bird
# [3] = test system: Cucumis sativus; conditions: chronic/long-term; other
# [4] = test system: Daphnia magna; conditions: chronic/long-term; duration: 21 days
# [5] = test system: Lepomis macrochirus
# [6] = test system: Rattus norvegicus; conditions: oral, histopathology: nonneoplastic
# [7] = test system: Tagia sp.
# [8] = test system: Typhlodromus pyri; assay: LR50; higher = less toxic; conditions: not reported; mortality
# [9] = acute, oral, unspecified, mortality
smiles,measurement,setting,value
CCCOC(=O)NCCCN(C)C.Cl [Propamocarb hydrochloride],LD50,[9],> 1330 mg/kg-day
same,LEC,chronic/long-term,104 mg/kg-day
same,LD50,[1],> 84 µg/piece
same,LD50,[2]; [9],> 1840 mg/kg-day
same,NOEC,[2]; reproductive,105 mg/kg-day
same,LC50,"[2]; short-term, oral, feed, mortality",> 962 mg/kg-day
same,NOEC,[3],9180 g/ha
same,NOEC,[4],12.3 mg/L
same,LC50,"[5]; acute, duration: 96 hours, mortality",> 92 µg/mL
same,NOEC,"[5]; chronic/long-term, duration: 32 days",> 6.3 mg/L
same,NOAEL,"[6]; chronic, duration: 52 weeks, diet, F",29 mg/kg-day
same,NOAEL,"[6]; short-term, duration: 28 days, gavage",100 mg/kg-day
same,LC50,"[7]; acute, duration: 14 days, mortality",> 660 mg/kg
same,NOEC,"[7]; chronic/long-term, duration: 56 days, reproduction",362 mg/kg
same,LR50,[8],> 360 g/ha
